Data taken from patent US8980888B2, “Pyrazole derivative” (Mochida Pharmaceutical Co., Ltd., priority 2013, dated 2015).
pIC50: −log10 of the molar value.

Each compound was assayed against T1, Human PDE10 (Homo sapiens, UniProt Q9Y233) (assay: Human PDE10 inhibitory effect (IMAP TR-FRET enzyme inhibition assay)). Settings: PDE10 inhibitory activity, cAMP substrate.
T1 construct: purchased BPA Bioscience (so in the source)
Format: biochemical
Procedure: (Evaluation of Enzyme Inhibitory Activity: Human PDE10 Inhibitory Effect)
IMAP TR-FRET Phosphodiersterase Evaluation Assay Kit (Molecular Device) was used for the measurement. Ten μL of a diluted test compound having each concentration and 5 μL of the enzyme PDE10 (BPA Bioscience) that had been diluted to 2 ng/mL with 1×IMAP Reaction Buffer (prepared with 5× included with the kit, 10 mM Tris-HCl, pH=7.2, 10 mM MgCl2, 0.05% NaN3, and 0.1% BSA) containing 0.1% BSA were added to a 384-well plate (Corning). The obtained mixture was then pre-incubated at room temperature for 5 minutes. Thereafter, 5 μL of cAMP substrate solution which was included with the kit and diluted to 400 nM with 1×IMAP Reaction Buffer containing 0.1% BSA, was added to the reaction solution, and the obtained mixture was reacted at room temperature for 60 minutes. Thereafter, 60 μL of an IMAP TR-FRET Binding solution included with the kit was further added to the reaction solution, and the obtained mixture was then left for 3 hours or more. Subsequently, using ARVO SX (PerkinElmer), the fluorescent intensity of Terbium (Emission=490 nm) and TR-FRET (Emission=520 nm) in the reaction solution were measured at an excitation wavelength of 340 nm, so as to calculate the amount of the generated 5′-AMP. The count of a well to which a solvent had been added instead of the test compound was set at 0%, and the count of a well to which the enzyme PDE10 had not been added was set at 100%. Thus, the inhibitory activity of each test compound was calculated.
The PDE10 inhibitory activity of the test compound was indicated with an IC50 value. […] The test compounds are shown in Table 3 (Table 3-1 and Table 3-2).

T1 sequence (Q9Y233 whole entry): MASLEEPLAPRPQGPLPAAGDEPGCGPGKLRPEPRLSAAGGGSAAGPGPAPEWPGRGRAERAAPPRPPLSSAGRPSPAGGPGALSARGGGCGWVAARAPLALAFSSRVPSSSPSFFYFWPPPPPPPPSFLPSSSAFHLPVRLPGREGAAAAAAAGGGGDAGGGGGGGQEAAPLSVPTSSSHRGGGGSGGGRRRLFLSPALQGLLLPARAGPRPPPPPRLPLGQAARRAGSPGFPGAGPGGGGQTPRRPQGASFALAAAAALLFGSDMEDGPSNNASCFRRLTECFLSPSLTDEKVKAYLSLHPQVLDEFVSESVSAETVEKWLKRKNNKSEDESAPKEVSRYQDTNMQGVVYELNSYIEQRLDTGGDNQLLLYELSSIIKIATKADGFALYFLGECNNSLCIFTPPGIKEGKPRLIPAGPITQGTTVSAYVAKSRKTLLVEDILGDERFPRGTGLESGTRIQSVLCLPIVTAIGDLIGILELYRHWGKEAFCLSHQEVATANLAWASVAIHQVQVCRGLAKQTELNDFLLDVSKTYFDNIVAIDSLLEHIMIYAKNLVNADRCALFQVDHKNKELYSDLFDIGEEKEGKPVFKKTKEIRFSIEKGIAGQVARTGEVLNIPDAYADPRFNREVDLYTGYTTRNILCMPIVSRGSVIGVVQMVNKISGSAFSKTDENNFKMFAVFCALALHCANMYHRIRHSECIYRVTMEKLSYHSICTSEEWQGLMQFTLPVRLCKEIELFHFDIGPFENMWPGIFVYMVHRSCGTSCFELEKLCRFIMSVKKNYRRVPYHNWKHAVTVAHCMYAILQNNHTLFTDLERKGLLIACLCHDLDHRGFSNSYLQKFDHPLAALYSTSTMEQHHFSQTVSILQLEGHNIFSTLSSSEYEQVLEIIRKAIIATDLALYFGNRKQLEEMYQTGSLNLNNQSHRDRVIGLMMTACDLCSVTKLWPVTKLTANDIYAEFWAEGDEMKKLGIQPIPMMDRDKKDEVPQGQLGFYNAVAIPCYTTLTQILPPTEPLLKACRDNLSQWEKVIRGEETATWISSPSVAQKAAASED

**Q.** How did the pIC50 turn out when `Cc1cnc(-c2cnn(C)c2C(=O)Nc2cc3nc(-c4ccccc4)nn3cc2F)cn1` [Example 3.2, N-(6-fluoro-2-phenyl-[1,2,4]triazolo[1,5-a]pyridin-7-yl)-1-methyl-4-(5-methylpyrazin-2-yl)-1H-pyrazole-5-carboxamide] was run?
**A.** > 8.30

**Q.** With `Cn1ncc(-c2cc(F)ccn2)c1C(=O)NC1CCn2nc(-c3ccccc3)nc2C1` (stereo not drawn) [Example 5.23, 4-(4-fluoropyridin-2-yl)-1-methyl-N-(2-phenyl-5,6,7,8-tetrahydro-[1,2,4]triazolo[1,5-a]pyridin-7-yl)-1H-pyrazole-5-carboxamide] as the compound, how does the pIC50 read?
**A.** 7.00 to 8.30

**Q.** `Cn1ncc(-c2nc(C(F)F)c(C3CC3)s2)c1C(=O)NC1CCn2nc(-c3ccc(F)cc3)nc2C1` (stereo not drawn) [Example 5.35, 4-(5-cyclopropyl-4-(difluoromethyl)thiazol-2-yl)-N-(2-(4-fluorophenyl)-5,6,7,8-tetrahydro-[1,2,4]triazolo[1,5-a]pyridin-7-yl)-1-methyl-1H-pyrazole-5-carboxamide] was tested. Which pIC50 did it give?
**A.** 7.00 to 8.30

**Q.** With `Cn1ncc(-c2ccc(F)cn2)c1C(=O)NC1CCn2nc(-c3ccccc3)nc2C1` (stereo not drawn) [Example 5.24, 4-(5-fluoropyridin-2-yl)-1-methyl-N-(2-phenyl-5,6,7,8-tetrahydro-[1,2,4]triazolo[1,5-a]pyridin-7-yl)-1H-pyrazole-5-carboxamide] as the compound, how does the pIC50 read?
**A.** 7.00 to 8.30

**Q.** How did the pIC50 turn out when `Cc1cccc(-c2cnn(C)c2C(=O)Nc2cc3nc(-c4ccccc4)nn3cc2F)n1` [Example 3.3, N-(6-fluoro-2-phenyl-[1,2,4]triazolo[1,5-a]pyridin-7-yl)-1-methyl-4-(6-methylpyridin-2-yl)-1H-pyrazole-5-carboxamide] was run?
**A.** > 8.30

**Q.** With `Cn1ncc(-c2nc(C(F)F)cs2)c1C(=O)NC1CCn2nc(-c3ccccc3F)nc2C1` (stereo not drawn) [Example 5.32, 4-(4-(difluoromethyl)thiazol-2-yl)-N-(2-(2-fluorophenyl)-5,6,7,8-tetrahydro-[1,2,4]triazolo[1,5-a]pyridin-7-yl)-1-methyl-1H-pyrazole-5-carboxamide] as the compound, how does the pIC50 read?
**A.** 7.00 to 8.30

**Q.** With `Cn1ncc(-c2cscn2)c1C(=O)NC1CCn2cc(-c3ccccc3)nc2C1` (stereo not drawn) [Example 2.25, 1-methyl-N-(2-phenyl-5,6,7,8-tetrahydroimidazo[1,2-a]pyridin-7-yl)-4-(thiazol-4-yl)-1H-pyrazole-5-carboxamide] as the compound, how does the pIC50 read?
**A.** 7.00 to 8.30

**Q.** How did the pIC50 turn out when `COc1ccnc(-c2cnn(C)c2C(=O)NC2CCn3nc(-c4ccccc4)nc3C2)c1` (stereo not drawn) [Example 5.25, 4-(4-methoxypyridin-2-yl)-1-methyl-N-(2-phenyl-5,6,7,8-tetrahydro-[1,2,4]triazolo[1,5-a]pyridin-7-yl)-1H-pyrazole-5-carboxamide] was run?
**A.** 7.00 to 8.30

**Q.** `Cn1ncc(-c2cccc(C#N)n2)c1C(=O)NC1CCn2nc(-c3ccccc3)nc2C1` (stereo not drawn) [Example 5.40, 4-(6-cyanopyridin-2-yl)-1-methyl-N-(2-phenyl-5,6,7,8-tetrahydro-[1,2,4]triazolo[1,5-a]pyridin-7-yl)-1H-pyrazole-5-carboxamide] was tested. Which pIC50 did it give?
**A.** 7.00 to 8.30

**Q.** With `Cc1cnc(C)c(-c2cnn(C)c2C(=O)NC2CCn3nc(-c4ccccc4)nc3C2)n1` (stereo not drawn) [Example 5.14, 4-(3,6-dimethylpyrazin-2-yl)-1-methyl-N-(2-phenyl-5,6,7,8-tetrahydro-[1,2,4]triazolo[1,5-a]pyridin-7-yl)-1H-pyrazole-5-carboxamide] as the compound, how does the pIC50 read?
**A.** 7.00 to 8.30

**Q.** With `Cc1cccc(-c2cnn(C)c2C(=O)NC2CCn3nc(N4CCCC4)nc3C2)n1` (stereo not drawn) [Example 5.47, 1-methyl-4-(6-methylpyridin-2-yl)-N-(2-(pyrrolidin-1-yl)-5,6,7,8-tetrahydro-[1,2,4]triazolo[1,5-a]pyridin-7-yl)-1H-pyrazole-5-carboxamide] as the compound, how does the pIC50 read?
**A.** 7.00 to 8.30

**Q.** `COc1ccccc1-c1nc2cc(NC(=O)c3c(-c4nc(C(F)F)c(Cl)s4)cnn3C)cc(Cl)n2n1` [Example 3.21, N-(5-chloro-2-(2-methoxyphenyl)-[1,2,4]triazolo[1,5-a]pyridin-7-yl)-4-(5-chloro-4-(difluoromethyl)thiazol-2-yl)-1-methy 1-1H-pyrazole-5-carboxamide] was tested. Which pIC50 did it give?
**A.** 7.00 to 8.30

**Q.** How did the pIC50 turn out when `Cc1nc(-c2cnn(C)c2C(=O)NC2CCn3nc(-c4ccccc4)nc3C2)sc1C1CC1` (stereo not drawn) [Example 5.38, 4-(5-cyclopropyl-4-methylthiazol-2-yl)-1-methyl-N-(2-phenyl-5,6,7,8-tetrahydro-[1,2,4]triazolo[1,5-a]pyridin-7-yl)-1H-pyrazole-5-carboxamide] was run?
**A.** 7.00 to 8.30

**Q.** How did the pIC50 turn out when `CC(=O)c1sc(C)nc1-c1cnn(C)c1C(=O)NC1CCn2nc(-c3cccc(F)c3)nc2C1` (stereo not drawn) [Example 5.44, 4-(5-acetyl-2-methylthiazol-4-yl)-N-(2-(3-fluorophenyl)-5,6,7,8-tetrahydro-[1,2,4]triazolo[1,5-a]pyridin-7-yl)-1-methyl-1H-pyrazole-5-carboxamide] was run?
**A.** 7.00 to 8.30

**Q.** `Cc1csc(-c2cnn(C)c2C(=O)NC2CCn3nc(-c4ccccc4)nc3C2)n1` (stereo not drawn) [Example 5.18, 1-methyl-4-(4-methylthiazol-2-yl)-N-(2-phenyl-5,6,7,8-tetrahydro-[1,2,4]triazolo[1,5-a]pyridin-7-yl)-1H-pyrazole-5-carboxamide] was tested. Which pIC50 did it give?
**A.** 7.00 to 8.30

**Q.** `Cc1csc(-c2cnn(C)c2C(=O)NC2CCn3cc(-c4ccccc4)nc3C2)n1` (stereo not drawn) [Example 2.1, 1-methyl-4-(4-methylthiazol-2-yl)-N-(2-phenyl-5,6,7,8-tetrahydroimidazo[1,2-a]pyridin-7-yl)-1H-pyrazole-5-carboxamide] was tested. Which pIC50 did it give?
**A.** > 8.30

**Q.** With `Cc1ncc(C)c(-c2cnn(C)c2C(=O)Nc2cc3nc(-c4ccccc4C)nn3cc2F)n1` [Example 3.50, 4-(2,5-dimethylpyrimidin-4-yl)-N-(6-fluoro-2-(o-tolyl)-[1,2,4]triazolo[1,5-a]pyridin-7-yl)-1-methyl-1H-pyrazole-5-carboxamide] as the compound, how does the pIC50 read?
**A.** > 8.30

**Q.** How did the pIC50 turn out when `Cc1ccnc(-c2cnn(C)c2C(=O)NC2CCn3cc(-c4ccccc4)nc3C2)n1` (stereo not drawn) [Example 2.16, 1-methyl-4-(4-methylpyrimidin-2-yl)-N-(2-phenyl-5,6,7,8-tetrahydroimidazo[1,2-a]pyridin-7-yl)-1H-pyrazole-5-carboxamide] was run?
**A.** 7.00 to 8.30

**Q.** With `COc1cc(-c2cnn(C)c2C(=O)Nc2cc3nc(-c4ccccc4)nn3cc2F)nc(OC)n1` [Example 3.40, 4-(2,6-dimethoxypyrimidin-4-yl)-N-(6-fluoro-2-phenyl-[1,2,4]triazolo[1,5-a]pyridin-7-yl)-1-methyl-1H-pyrazole-5-carboxamide] as the compound, how does the pIC50 read?
**A.** > 8.30

**Q.** With `Cn1ncc(-c2nc(C(F)F)cs2)c1C(=O)NC1CCn2nc(-c3ccc(F)cc3)nc2C1` (stereo not drawn) [Example 5.2, 4-(4-(difluoromethyl)thiazol-2-yl)-N-(2-(4-fluorophenyl)-5,6,7,8-tetrahydro-[1,2,4]triazolo[1,5-a]pyridin-7-yl)-1-methyl-1H-pyrazole-5-carboxamide] as the compound, how does the pIC50 read?
**A.** 7.00 to 8.30

**Q.** How did the pIC50 turn out when `Cn1ncc(-c2cccc(C(F)(F)F)n2)c1C(=O)NC1CCn2nc(-c3ccccc3)nc2C1` (stereo not drawn) [Example 5.21, 1-methyl-N-(2-phenyl-5,6,7,8-tetrahydro-[1,2,4]triazolo[1,5-a]pyridin-7-yl)-4-(6-(trifluoromethyl)pyridin-2-yl)-1H-pyrazole-5-carboxamide] was run?
**A.** 7.00 to 8.30

**Q.** With `Cc1nsc(-c2cnn(C)c2C(=O)NC2CCn3nc(-c4ccccc4)nc3C2)n1` (stereo not drawn) [Example 5.15, 1-methyl-4-(3-methyl-1,2,4-thiadiazol-5-yl)-N-(2-phenyl-5,6,7,8-tetrahydro-[1,2,4]triazolo[1,5-a]pyridin-7-yl)-1H-pyrazole-5-carboxamide] as the compound, how does the pIC50 read?
**A.** 7.00 to 8.30

**Q.** How did the pIC50 turn out when `Cn1ncc(-c2nc(C(F)F)c(Cl)s2)c1C(=O)NC1CCn2nc(-c3cccc(F)c3)nc2C1` (stereo not drawn) [Example 5.37, 4-(5-chloro-4-(difluoromethyl)thiazol-2-yl)-N-(2-(3-fluorophenyl)-5,6,7,8-tetrahydro-[1,2,4]triazolo[1,5-a]pyridin-7-yl)-1-methyl-1H-pyrazole-5-carboxamide] was run?
**A.** 7.00 to 8.30

**Q.** `Cc1ccnc(-c2cnn(C)c2C(=O)NC2CCn3nc(-c4ccccc4)nc3C2)c1` (stereo not drawn) [Example 5.20, 1-methyl-4-(4-methylpyridin-2-yl)-N-(2-phenyl-5,6,7,8-tetrahydro-[1,2,4]triazolo[1,5-a]pyridin-7-yl)-1H-pyrazole-5-carboxamide] was tested. Which pIC50 did it give?
**A.** 7.00 to 8.30

**Q.** With `COC[C@H]1CCCN1c1nc2n(n1)CCC(NC(=O)c1c(-c3nc(C(F)F)cs3)cnn1C)C2` (stereo partly drawn) [Example 5.16, 4-(4-(difluoromethyl)thiazol-2-yl)-N-(2-((R)-2-(methoxymethyl)pyrrolidin-1-yl)-5,6,7,8-tetrahydro-[1,2,4]triazolo[1,5-a]pyridin-7-yl)-1-methyl-1H-pyrazole-5-carboxamide] as the compound, how does the pIC50 read?
**A.** 7.00 to 8.30

**Q.** With `CCc1nnc(-c2cnn(C)c2C(=O)NC2CCn3nc(-c4ccccc4)nc3C2)s1` (stereo not drawn) [Example 5.12, 4-(5-ethyl-1,3,4-thiadiazol-2-yl)-1-methyl-N-(2-phenyl-5,6,7,8-tetrahydro-[1,2,4]triazolo[1,5-a]pyridin-7-yl)-1H-pyrazole-5-carboxamide] as the compound, how does the pIC50 read?
**A.** 7.00 to 8.30

**Q.** With `Cn1ncc(-c2nc(C(F)F)c(Cl)s2)c1C(=O)NC1CCn2nc(-c3ccc(F)cc3)nc2C1` (stereo not drawn) [Example 5.3, 4-(5-chloro-4-(difluoromethyl)thiazol-2-yl)-N-(2-(4-fluorophenyl)-5,6,7,8-tetrahydro-[1,2,4]triazolo[1,5-a]pyridin-7-yl)-1-methyl-1H-pyrazole-5-carboxamide] as the compound, how does the pIC50 read?
**A.** > 8.30
